{
  "source": "patent US20260137711A1",
  "about": "“COMBINATION THERAPY FOR CANCER” (NATIONAL UNIVERSITY OF IRELAND, GALWAY, priority 2022, published 2026)",
  "system": "MCF10A EditR cells",
  "test": "Pooled genome-wide CRISPR/Cas9 screen with XL413 (cell proliferation, sgRNA abundance, MAGeCK beta scores)",
  "type": "cell-based, human",
  "details": "for XL413 beta score: 1.25 μM XL413, day 0 to day 24; for Differential beta score (Treatment − Control): XL413-treated minus untreated",
  "method": "Supplemental FIG. 1: CRISPR/Cas9 screen: Cell proliferation curves, summary of sgRNA coverage, and genes of interest identified (a-c) Proliferation curves of MCF10A EditR cells expressing sgRNAs from CRISPR library modules I, II and III in the absence (untreated) or presence of 1.25 μM XL413. Data is from three independent counts of each sample ±standard deviation (SD). (d) DNA extracted from samples of the CRISPR/Cas9 screen, which were harvested on day 0 and after 20 or 24 days of growth in the absence (untreated) or presence of 1.25 μM XL413, respectively, was analysed by next generation sequencing. Sequence data was mapped to a CELLECTA genome-wide sgRNA reference library using the MAGeCKFlute pipeline. (d) The table summarises the total and missing number of sgRNAs, the calculated % sgRNA coverage and the number of missing genes.\nA genome-wide CRIPSR/Cas9 loss of function screen identifies genes that affect proliferation rate in response to a CDC7 inhibitor In order to identify genes that change the rate of proliferation when DNA synthesis is mildly limited by CDC7 inhibition, we performed a CRISPR/Cas9 genome-wide knockout screen as outlined in FIG. 1a. Briefly, MCF10A EditR cells that stably express Cas9 were transduced with a lentiviral-sgRNA library targeting approximately 19,000 coding genes and then were either untreated or treated with 1.25 μM of selective ATP competitive CDC7 inhibitor, XL413 (Koltun et al., 2012). […] Next generation sequencing was then used to determine sgRNA abundance at day 0, day 20 untreated and day 24 XL413 treated cells. […] CRISPR/Cas9-mediated loss of function of genes involved in supporting proliferation in untreated cells or in response to CDC7 inhibition is expected to result in a decreased relative abundance of the corresponding sgRNAs in the cell population. […] When the genes were ranked according to the magnitude of the effect, CDK8, a gene that expresses a component of the CDK8/CDK19-CCNC-MED12-MED 13 mediator complex kinase-module (Dannappel et al., 2019; Fant and Taatjes, 2019; Menzl et al., 2019), came out as the top hit (FIG. 1b and Table 1, ranked 19012 out of 19012 genes).\nMCF10A EditR cells (120×10^6 per module) were transduced with individual modules (Modules I, II and III) in the presence of 5 µg/ml polybrene at a Multiplicity of Infection (MoI) of 0.4 achieving ˜600-fold guide representation. After 24 hours, transduced cells were harvested, replated and selected with puromycin ([…]) for 6 days. Puromycin resistant cells were harvested and a sample of ˜30×10^6 cells taken for analysis by next generation sequencing (NGS) at the start of the screen (day 0). The remaining puromycin resistant cells from each module were cultured independently from each other in untreated and XL413 treated ([…]) experimental branches. Throughout the screen cell proliferation and viability were determined by cell counting on a LunaII automated cell counter (Logos Biosystems) using trypan blue exclusion. Cells were cultured, harvested, reseeded and retreated every 4 days in order to maintain ˜600-fold guide representation. Finally at day 20 for the untreated branch and at day 24 for the XL413-treated branche, cells were harvested and a sample of ˜30×10^6 cells taken for analysis by NGS.\nFASTQ files obtained by NGS were analysed using the MAGeCKFlute pipeline (Wang et al., 2019) as outlined below. MAGeCK was used to perform adaptor trimming, mapping of trimmed sgRNAs and associated sequencing reads to the CELLECTA sgRNA reference library, and a quality control assessment of the sequencing quality and screen data. Following quality control inspection, sgRNA read count data from the day 0 vs day 20 untreated and day 0 vs day 24 XL413-treated (1.25 μM) conditions were modelled using a negative-binomial distribution by MAGeCK-MLE to calculate a beta score for each targeted gene. Negative control sgRNAs in the CELLECTA library were used by MAGeCK-MLE to normalize the read counts between samples. […]",
  "data": [
    {"smiles": "Cl.O=c1[nH]c([C@@H]2CCCN2)nc2c1oc1ccc(Cl)cc12", "note": "[XL413]", "values": [
      {"measurement": "cell proliferation over the course of the screen", "setting": "1.25 μM XL413, cells expressing sgRNA library", "value": "only mildly suppressed"},
      {"measurement": "XL413 beta score", "setting": "gene CCNC targeted by sgRNAs", "value": "−1.0759"},
      {"measurement": "Differential beta score (Treatment − Control)", "setting": "gene CCNC targeted by sgRNAs", "value": "−0.3602"},
      {"measurement": "XL413 beta score", "setting": "gene CDK8 targeted by sgRNAs", "value": "−1.6094"},
      {"measurement": "Differential beta score (Treatment − Control)", "setting": "gene CDK8 targeted by sgRNAs", "value": "−1.4391"},
      {"measurement": "XL413 beta score", "setting": "gene CDK19 targeted by sgRNAs", "value": "−0.2393"},
      {"measurement": "Differential beta score (Treatment − Control)", "setting": "gene CDK19 targeted by sgRNAs", "value": 0.0034},
      {"measurement": "XL413 beta score", "setting": "gene MED12 targeted by sgRNAs", "value": "−0.8276"},
      {"measurement": "Differential beta score (Treatment − Control)", "setting": "gene MED12 targeted by sgRNAs", "value": 0.0928},
      {"measurement": "XL413 beta score", "setting": "gene MED13 targeted by sgRNAs", "value": 0.0939},
      {"measurement": "Differential beta score (Treatment − Control)", "setting": "gene MED13 targeted by sgRNAs", "value": 0.0062},
      {"measurement": "XL413 beta score", "setting": "gene RIF1 targeted by sgRNAs", "value": "−0.0162"},
      {"measurement": "Differential beta score (Treatment − Control)", "setting": "gene RIF1 targeted by sgRNAs", "value": 0.7442}
    ]}
  ]
}
